Data published in patent publication US12637428B2, “Isoquinoline derivatives as SIK2 inhibitors” (Cancer Research Technology Limited, priority 2019, dated 2026).

Experiments:
Assay type in all cases: biochemical
[1] = target: T1, SIK2 (Homo sapiens, UniProt Q9H0K1); assay: SIK2 kinase assay, IMAP fluorescence polarization; conditions: 50 or 100 μM ATP, average
T1 construct: purchased Life Technologies
Protocol: (§1) SIK2, SIK1, SIK3, Abl, Src and EPHA2 Kinase Assays
(§2) SIK2, SIK1, SIK3, Abl, Src and EPHA2 assays were performed using an IMAP fluorescence polarization assay format (Molecular Devices Inc.). 0.6-13 nM of each kinase (Life Technologies) was incubated for 60 min at room temperature with 100 nM of either FAM-Abltide, FAM-Srctide or FAM-HDAC protein derived peptide (synthesized by Alta Biosciences, Birmingham UK). Assays were carried out in the presence of 50 or 100 μM ATP in either 20 mM Tris buffer (pH 7.2) containing 4 mM MgCl2, 0.2% BSA and 2 mM DTT (SIK2, SIK1, SIK3, Abl, Src); or 20 mM Tris buffer (pH 8.5) containing 20 mM MgCl2, 0.5% BSA, 0.2% Triton and 5 mM DTT (EPHA2). Typically, dose response analyses were performed over concentration ranges from 0.00005-1 μM. Reactions were stopped by adding 2 assay volumes of 0.25% (v/v) IMAP binding reagent in either an 85:15 ratio (SIK2, SIK1, SIK3, Abl, EPHA2) or 30:70 ratio (Src) of IMAP binding buffers A and B (Molecular Devices). After incubation to allow the detection reagents to bind to the phosphorylated peptide, fluorescence polarization was measured on a Tecan Infinite plate reader at excitation (470 nm) and emission (530 nm) wavelengths. Inhibition was calculated using no inhibitor and no enzyme controls as 0 and 100% inhibition, respectively.
(§3) Table 3 provides details of the inhibitory constant (nM) of compounds of the invention at SIK1, SIK2 and SIK3 and other kinases.

[2] = target: T2, EPHA2 (Homo sapiens, UniProt P29317); assay: EPHA2 kinase assay, IMAP fluorescence polarization; conditions: 50 or 100 μM ATP, Tris pH 8.5, average
T2 construct: purchased Life Technologies
T2 sequence (P29317 24-976): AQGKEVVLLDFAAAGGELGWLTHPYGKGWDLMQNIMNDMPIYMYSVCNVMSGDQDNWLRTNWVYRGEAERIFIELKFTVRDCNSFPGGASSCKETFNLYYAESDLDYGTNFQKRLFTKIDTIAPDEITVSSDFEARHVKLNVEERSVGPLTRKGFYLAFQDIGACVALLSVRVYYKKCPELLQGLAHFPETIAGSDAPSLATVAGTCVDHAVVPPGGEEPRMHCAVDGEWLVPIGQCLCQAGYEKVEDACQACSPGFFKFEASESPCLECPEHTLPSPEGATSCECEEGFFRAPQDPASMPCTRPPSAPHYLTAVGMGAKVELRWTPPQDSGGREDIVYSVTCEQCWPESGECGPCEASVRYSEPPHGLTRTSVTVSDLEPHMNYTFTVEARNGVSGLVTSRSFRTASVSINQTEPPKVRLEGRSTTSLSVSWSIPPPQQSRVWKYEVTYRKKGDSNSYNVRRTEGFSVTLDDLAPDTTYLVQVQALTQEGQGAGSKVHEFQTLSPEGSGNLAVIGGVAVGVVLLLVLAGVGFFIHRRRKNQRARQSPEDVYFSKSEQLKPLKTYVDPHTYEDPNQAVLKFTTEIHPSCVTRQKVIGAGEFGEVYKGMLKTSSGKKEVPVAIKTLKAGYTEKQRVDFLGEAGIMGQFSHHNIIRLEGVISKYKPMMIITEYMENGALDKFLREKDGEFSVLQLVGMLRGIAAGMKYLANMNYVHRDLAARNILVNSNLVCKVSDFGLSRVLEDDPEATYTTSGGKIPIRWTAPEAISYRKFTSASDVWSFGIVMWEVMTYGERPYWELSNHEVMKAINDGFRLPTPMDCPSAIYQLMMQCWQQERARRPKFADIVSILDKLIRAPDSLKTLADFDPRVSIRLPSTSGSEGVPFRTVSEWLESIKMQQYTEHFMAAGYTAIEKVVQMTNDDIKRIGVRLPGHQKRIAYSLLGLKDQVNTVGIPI
Protocol: as §1, §2, §3

[3] = target: T3, SIK1 (Homo sapiens, UniProt P57059); assay: SIK1 kinase assay, IMAP fluorescence polarization; conditions: 50 or 100 μM ATP, average
T3 construct: purchased Life Technologies
T3 sequence (P57059 whole entry): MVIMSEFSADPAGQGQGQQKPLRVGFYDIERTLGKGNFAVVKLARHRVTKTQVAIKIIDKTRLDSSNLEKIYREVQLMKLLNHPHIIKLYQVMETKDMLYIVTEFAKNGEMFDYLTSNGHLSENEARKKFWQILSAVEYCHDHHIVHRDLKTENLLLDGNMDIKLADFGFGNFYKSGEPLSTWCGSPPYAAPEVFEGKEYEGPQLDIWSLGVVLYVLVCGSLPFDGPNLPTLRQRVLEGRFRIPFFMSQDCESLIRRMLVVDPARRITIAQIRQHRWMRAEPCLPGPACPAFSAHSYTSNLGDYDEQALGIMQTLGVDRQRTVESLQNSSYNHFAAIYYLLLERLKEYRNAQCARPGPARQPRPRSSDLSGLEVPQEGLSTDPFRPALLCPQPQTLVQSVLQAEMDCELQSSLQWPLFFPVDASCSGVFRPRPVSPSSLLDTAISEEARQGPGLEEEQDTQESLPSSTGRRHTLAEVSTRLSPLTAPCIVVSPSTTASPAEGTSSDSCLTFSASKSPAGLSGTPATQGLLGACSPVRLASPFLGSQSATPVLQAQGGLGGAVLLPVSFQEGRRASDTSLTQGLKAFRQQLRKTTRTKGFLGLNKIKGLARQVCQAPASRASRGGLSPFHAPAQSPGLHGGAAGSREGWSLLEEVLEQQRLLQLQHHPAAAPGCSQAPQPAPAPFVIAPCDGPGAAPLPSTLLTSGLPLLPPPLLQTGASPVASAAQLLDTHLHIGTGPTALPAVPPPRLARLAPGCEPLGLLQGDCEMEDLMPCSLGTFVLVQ
Protocol: as §1, §2, §3

[4] = target: T4, SIK3 (Homo sapiens, UniProt Q9Y2K2); assay: SIK3 kinase assay, IMAP fluorescence polarization; conditions: 50 or 100 μM ATP, average
T4 construct: purchased Life Technologies
Protocol: as §1, §2, §3

[5] = target: T5, Src (Homo sapiens, UniProt P12931); assay: Src kinase assay, IMAP fluorescence polarization; conditions: 50 or 100 μM ATP, average
T5 construct: purchased Life Technologies
T5 sequence (P12931 whole entry): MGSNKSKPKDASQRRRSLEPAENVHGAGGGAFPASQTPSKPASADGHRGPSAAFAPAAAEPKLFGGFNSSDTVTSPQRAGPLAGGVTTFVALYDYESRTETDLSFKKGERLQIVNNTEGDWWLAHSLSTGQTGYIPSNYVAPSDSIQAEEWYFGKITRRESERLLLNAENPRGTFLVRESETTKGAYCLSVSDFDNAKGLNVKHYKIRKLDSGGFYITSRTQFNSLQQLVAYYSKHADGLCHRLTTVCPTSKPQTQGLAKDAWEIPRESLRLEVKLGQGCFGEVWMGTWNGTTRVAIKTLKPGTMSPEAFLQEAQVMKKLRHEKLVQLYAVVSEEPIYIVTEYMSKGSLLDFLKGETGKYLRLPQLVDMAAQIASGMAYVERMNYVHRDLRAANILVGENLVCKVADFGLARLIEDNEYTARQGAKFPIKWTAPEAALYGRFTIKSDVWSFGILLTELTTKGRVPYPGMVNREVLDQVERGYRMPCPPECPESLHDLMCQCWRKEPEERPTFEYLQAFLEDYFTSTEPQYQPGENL
Protocol: as §1, §2, §3

[6] = target: T6, Abl (Homo sapiens, UniProt P00519); assay: Abl kinase assay, IMAP fluorescence polarization; conditions: 50 or 100 μM ATP, average
T6 construct: purchased Life Technologies
T6 sequence (P00519 whole entry): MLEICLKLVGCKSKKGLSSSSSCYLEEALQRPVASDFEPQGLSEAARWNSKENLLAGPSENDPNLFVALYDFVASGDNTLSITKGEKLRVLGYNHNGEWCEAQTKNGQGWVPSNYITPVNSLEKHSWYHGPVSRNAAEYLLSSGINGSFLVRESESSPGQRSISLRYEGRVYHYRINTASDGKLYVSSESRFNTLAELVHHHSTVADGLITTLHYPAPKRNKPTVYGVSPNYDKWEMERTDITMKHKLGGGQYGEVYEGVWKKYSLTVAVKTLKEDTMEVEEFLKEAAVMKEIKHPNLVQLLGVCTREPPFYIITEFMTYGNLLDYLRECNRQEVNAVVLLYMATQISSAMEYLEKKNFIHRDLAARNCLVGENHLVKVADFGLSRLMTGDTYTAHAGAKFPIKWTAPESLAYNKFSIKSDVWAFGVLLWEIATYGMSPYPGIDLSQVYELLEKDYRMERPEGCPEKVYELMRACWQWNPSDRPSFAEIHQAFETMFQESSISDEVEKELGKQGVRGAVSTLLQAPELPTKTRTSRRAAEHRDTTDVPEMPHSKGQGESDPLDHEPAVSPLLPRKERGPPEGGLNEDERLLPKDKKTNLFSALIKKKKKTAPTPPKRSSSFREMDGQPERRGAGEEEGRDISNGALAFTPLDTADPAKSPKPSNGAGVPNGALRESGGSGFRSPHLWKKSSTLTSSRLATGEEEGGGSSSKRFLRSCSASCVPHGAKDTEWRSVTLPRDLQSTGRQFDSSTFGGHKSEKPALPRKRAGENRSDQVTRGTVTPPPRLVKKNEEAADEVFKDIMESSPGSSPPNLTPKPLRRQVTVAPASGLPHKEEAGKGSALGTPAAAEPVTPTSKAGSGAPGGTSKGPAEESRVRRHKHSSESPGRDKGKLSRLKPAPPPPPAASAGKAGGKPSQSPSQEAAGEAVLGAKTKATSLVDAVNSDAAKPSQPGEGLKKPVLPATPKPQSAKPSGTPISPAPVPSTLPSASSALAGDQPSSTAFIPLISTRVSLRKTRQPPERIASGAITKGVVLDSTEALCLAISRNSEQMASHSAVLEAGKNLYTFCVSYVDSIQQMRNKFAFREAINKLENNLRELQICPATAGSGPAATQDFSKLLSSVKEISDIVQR
Protocol: as §1, §2, §3

T1 sequence (Q9H0K1 whole entry): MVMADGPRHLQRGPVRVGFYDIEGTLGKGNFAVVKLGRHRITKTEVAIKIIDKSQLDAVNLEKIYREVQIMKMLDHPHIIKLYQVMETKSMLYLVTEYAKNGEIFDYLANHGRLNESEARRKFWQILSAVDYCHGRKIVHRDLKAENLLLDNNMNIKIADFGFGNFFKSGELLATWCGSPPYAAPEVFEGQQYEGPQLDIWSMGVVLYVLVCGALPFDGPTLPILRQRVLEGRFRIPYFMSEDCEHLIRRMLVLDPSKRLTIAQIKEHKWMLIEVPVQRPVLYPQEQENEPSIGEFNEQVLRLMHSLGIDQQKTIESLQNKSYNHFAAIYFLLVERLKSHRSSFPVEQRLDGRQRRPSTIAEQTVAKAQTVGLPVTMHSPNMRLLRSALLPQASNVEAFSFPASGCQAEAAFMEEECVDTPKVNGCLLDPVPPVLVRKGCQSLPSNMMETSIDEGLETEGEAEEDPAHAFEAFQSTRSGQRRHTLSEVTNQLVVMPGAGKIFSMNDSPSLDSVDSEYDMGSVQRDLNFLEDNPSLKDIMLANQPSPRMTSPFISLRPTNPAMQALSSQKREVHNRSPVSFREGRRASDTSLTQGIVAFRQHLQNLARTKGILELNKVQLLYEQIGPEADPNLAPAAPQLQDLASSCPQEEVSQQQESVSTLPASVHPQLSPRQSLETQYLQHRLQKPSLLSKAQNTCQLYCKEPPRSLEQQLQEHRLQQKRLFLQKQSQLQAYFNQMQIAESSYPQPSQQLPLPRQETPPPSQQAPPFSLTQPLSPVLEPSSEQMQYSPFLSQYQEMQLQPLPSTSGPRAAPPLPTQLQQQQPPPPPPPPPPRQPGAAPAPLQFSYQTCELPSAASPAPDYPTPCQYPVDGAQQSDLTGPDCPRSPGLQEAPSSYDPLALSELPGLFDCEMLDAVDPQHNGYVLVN

Row | Structure (SMILES) | Ki [1] [nM] | Ki [2] [nM] | Ki [3] [nM] | Ki [4] [nM] | Ki [5] [nM] | Ki [6] [nM]
1 | Cc1cccc(F)c1-c1cc(NC[C@@H]2CCNC2)c2cc(N)ncc2c1 [Example 6, 7-(2-fluoro-6-methyl-phenyl)-N5-[[(3R)-pyrrolidin-3-yl]methyl]isoquinoline-3,5-diamine] | 0.0517 | 49.5 | 0.31 | 0.57 | 145 | 0.298
2 | Cc1cccc(F)c1-c1cc(N[C@H]2CCNC2)c2cc(N)ncc2c1 [Example 7, 7-(2-fluoro-6-methyl-phenyl)-N5-[(3S)-pyrrolidin-3-yl]isoquinoline-3,5-diamine] | 0.0496 | 199 | 0.414 | 0.325 | 193 | 5.55
3 | Cc1cccc(F)c1-c1cc(NCC2CCNCC2)c2cc(N)ncc2c1 [Example 8, 7-(2-fluoro-6-methyl-phenyl)-N5-(4-piperidylmethyl)isoquinoline-3,5-diamine] | 0.108 | 5.15 | 0.546 | 1.02 | 16.5 | 1.4
4 | Cc1cccc(F)c1-c1cc(NC[C@H]2CCNC2)c2cc(N)ncc2c1 [Example 9, 7-(2-fluoro-6-methyl-phenyl)-N5-[[(3S)-pyrrolidin-3-yl]methyl]isoquinoline-3,5-diamine] | 0.0411 | 166 | 0.316 | 0.269 | 217 | 0.687
5 | Cc1cccc(F)c1-c1cc(NC[C@@H]2CCCNC2)c2cc(N)ncc2c1 [Example 10, 7-(2-fluoro-6-methyl-phenyl)-N5-[[(3R)-3-piperidyl]methyl]isoquinoline-3,5-diamine] | 0.101 | 47.6 | 0.535 | 0.966 | 32.1 | 4.83
6 | Cc1cccc(F)c1-c1cc(NCC2CNC2)c2cc(N)ncc2c1 [Example 11, N5-(azetidin-3-ylmethyl)-7-(2-fluoro-6-methyl-phenyl)isoquinoline-3,5-diamine] | 0.0672 | 95.1 | 0.417 | 0.195 | 23.5 | 0.921
7 | Cc1cccc(F)c1-c1cc(NC[C@H]2CCCN2)c2cc(N)ncc2c1 [Example 12, 7-(2-fluoro-6-methyl-phenyl)-N5-[[(2R)-pyrrolidin-2-yl]methyl]isoquinoline-3,5-diamine] | 0.329 | 216 | 1.07 | 3.1 | 167 | 22.9
8 | Cc1cccc(F)c1-c1cc(NC[C@@H]2CCCN2)c2cc(N)ncc2c1 [Example 13, 7-(2-fluoro-6-methyl-phenyl)-N5-[[(2S)-pyrrolidin-2-yl]methyl]isoquinoline-3,5-diamine] | 0.191 | 144 | 0.501 | 1.01 | 24.3 | 3.29
9 | Cc1cccc(F)c1-c1cc(NC[C@@H]2CCCCN2)c2cc(N)ncc2c1 [Example 14, 7-(2-fluoro-6-methyl-phenyl)-N5-[[(2S)-2-piperidyl]methyl]isoquinoline-3,5-diamine] | 0.0969 | 59.5 | 0.601 | 2.43 | 67.8 | 8.01
10 | CNC1CCN(c2cc(-c3c(C)cccc3F)cc3cnc(N)cc23)CC1 [Example 15, 7-(2-fluoro-6-methyl-phenyl)-5-[4-(methylamino)-1-piperidyl]isoquinolin-3-amine] | 0.155 | 156 | 1.01 | 1.94 | 396 | 19.4
11 | CN[C@H]1CCN(c2cc(-c3c(C)cccc3F)cc3cnc(N)cc23)C1 [Example 16, 7-(2-fluoro-6-methyl-phenyl)-5-[(3S)-3-(methylamino)pyrrolidin-1-yl]isoquinolin-3-amine] | 0.224 | 278 | 2 | 4.7 | 924 | 41.6
12 | Cc1cccc(F)c1-c1cc(N[C@@H]2CCCCNC2)c2cc(N)ncc2c1 [Example 17, N5-[(3R)-azepan-3-yl]-7-(2-fluoro-6-methyl-phenyl)isoquinoline-3,5-diamine] | 0.096 | > 1000 | 0.463 | 1.65 | > 1000 | 2.55
13 | CN[C@H]1CCCN(c2cc(-c3c(C)cccc3F)cc3cnc(N)cc23)C1 [Example 18, 7-(2-fluoro-6-methyl-phenyl)-5-[(3S)-3-(methylamino)-1-piperidyl]isoquinolin-3-amine] | 0.196 | 100 | 0.656 | 7.09 | 53.4 | 1.88
14 | CN[C@@H]1CCCN(c2cc(-c3c(C)cccc3F)cc3cnc(N)cc23)C1 [Example 19, 7-(2-fluoro-6-methyl-phenyl)-5-[(3R)-3-(methylamino)-1-piperidyl]isoquinolin-3-amine] | 0.113 | > 1000 | 0.476 | 4.45 | 306 | 24.6
15 | CNC[C@H]1CCCN(c2cc(-c3c(C)cccc3F)cc3cnc(N)cc23)C1 [Example 21, 7-(2-fluoro-6-methyl-phenyl)-5-[(3R)-3-(methylamino-methyl)-1-piperidyl]isoquinolin-3-amine] | 0.274 | 41.5 | 0.594 | 9.36 | 50.4 | 10.5
16 | CNC[C@@H]1CCCN(c2cc(-c3c(C)cccc3F)cc3cnc(N)cc23)C1 [Example 22, 7-(2-fluoro-6-methyl-phenyl)-5-[(3S)-3-(methylamino-methyl)-1-piperidyl]isoquinolin-3-amine] | 0.563 | 227 | 1.67 | 13.6 | 304 | 46.6
17 | Cc1cccc(F)c1-c1cc(N[C@H]2CCCCNC2)c2cc(N)ncc2c1 [Example 23, N5-[(3S)-azepan-3-yl]-7-(2-fluoro-6-methyl-phenyl)isoquinoline-3,5-diamine] | 0.0488 | 24.6 | 0.287 | 0.171 | 15.9 | 3.75
18 | CN[C@@H]1CCN(c2cc(-c3c(C)cccc3F)cc3cnc(N)cc23)C1 [Example 24, 7-(2-fluoro-6-methyl-phenyl)-5-[(3R)-3-(methylamino)pyrrolidin-1-yl]isoquinolin-3-amine] | 0.402 | 148 | 2.34 | 7.5 | 327 | 34
19 | Cc1cccc(F)c1-c1cc(N[C@@H]2CCCNC2)c2cc(N)ncc2c1 [Example 25, 7-(2-fluoro-6-methyl-phenyl)-N5-[(3R)-3-piperidyl]isoquinoline-3,5-diamine] | 0.132 | > 1000 | 0.546 | 1.28 | > 1000 | 4.96
20 | Cc1cccc(F)c1-c1cc(N[C@H]2CCCNC2)c2cc(N)ncc2c1 [Example 26, 7-(2-fluoro-6-methyl-phenyl)-N5-[(3S)-3-piperidyl]isoquinoline-3,5-diamine] | 0.0395 | 24.6 | 0.302 | 0.0838 | 163 | 0.341
21 | CNc1cc2c(NC3CCNCC3)cc(-c3c(C)cccc3F)cc2cn1 [Example 27, 7-(2-Fluoro-6-methyl-phenyl)-N3-methyl-N5-(4-piperidyl)isoquinoline-3,5-diamine] | 0.0748 | 216 | 0.429 | 0.349 | 218 | 22.9
22 | Cc1cccc(F)c1-c1cc(NC2CCNCC2)c2cc(NC(C)C)ncc2c1 [Example 28, 7-(2-fluoro-6-methyl-phenyl)-N3-isopropyl-N5-(4-piperidyl)isoquinoline-3,5-diamine] | 0.155 | > 1000 | 1.39 | 0.504 | 413 | 14.8
23 | CNC1CN(c2cc(-c3c(C)cccc3F)cc3cnc(N)cc23)C1 [Example 29, 7-(2-Fluoro-6-methyl-phenyl)-5-[3-(methylamino)azetidin-1-yl]isoquinolin-3-amine] | 0.056 | 165 | 0.381 | 0.447 | 97.4 | 19.3
24 | Cc1cccc(Cl)c1-c1cc(NC2CCNCC2)c2cc(N)ncc2c1 [Example 30, 7-(2-Chloro-6-methyl-phenyl)-N5-(4-piperidyl)isoquinoline-3,5-diamine] | 0.335 | 65.5 | 0.474 | 2.92 | 96.2 | 36.1
